From patent US20200205406A1, “MICROBIOCIDAL PHENYLAMIDINE DERIVATIVES WITH IMPROVED PLANT SAFETY PROPERTIES” (SYNGENTA PARTICIPATIONS AG, priority 2017, published 2020) come the findings set out here.

Structures are written as SMILES.

The melting point is the temperature of the solid-liquid transition. The molecule `CCN(C)C=Nc1cc(OC)c(Oc2ccccc2)cc1C` came in with a melting point of 59 to 60 °C.
